pIC50: −log10 of the molar value. Active and inactive are the calls of the source. The calls are words filed in the database; no cut-off is given here.
Experiments:
[1] = system: A549; assay: Cytotoxicity against human A549 cells assessed as inhibition of cell viability incubated for 48 hrs by CCK8 assay; assay type: functional, cell-based; conditions: A549, 48 h
[2] = system: NCI-H1299; assay: Cytotoxicity against human NCI-H1299 cells assessed as inhibition of cell viability incubated for 48 hrs by CCK8 assay; assay type: functional, cell-based; conditions: NCI-H1299, 48 h
[3] = Cytotoxicity against human BEAS-2B cells assessed as cell viability upto 20 uM incubated for 48 hrs by CCK8 assay relative to control; assay type: toxicity, cell-based; conditions: read-out: Activity
[4] = system: A549; assay: Induction of apoptosis in human A549 cells assessed as viable cells at 2.5 uM incubated for 48 hrs by Annexin V-FITC/PI staining based flow cytometry (reference value: 87.8 %); assay type: functional; conditions: read-out: Activity
[5] = system: A549; assay: Induction of apoptosis in human A549 cells assessed as early apoptotic cells at 2.5 uM incubated for 48 hrs by Annexin V-FITC/PI staining based flow cytometry (reference value: 5.02 %); assay type: functional
[6] = system: A549; assay: Induction of apoptosis in human A549 cells assessed as late apoptotic cells at 2.5 uM incubated for 48 hrs by Annexin V-FITC/PI staining based flow cytometry (reference value: 5.79 %); assay type: functional
[7] = system: A549; assay: Induction of apoptosis in human A549 cells assessed as necrotic cells at 2.5 uM incubated for 48 hrs by Annexin V-FITC/PI staining based flow cytometry (reference value: 1.41 %); assay type: functional
[8] = system: A549; assay: Induction of apoptosis in human A549 cells assessed as viable cells at 5 uM incubated for 48 hrs by Annexin V-FITC/PI staining based flow cytometry (reference value: 87.8 %); assay type: functional; conditions: read-out: Activity
[9] = system: A549; assay: Induction of apoptosis in human A549 cells assessed as early apoptotic cells at 5 uM incubated for 48 hrs by Annexin V-FITC/PI staining based flow cytometry (reference value: 5.02 %); assay type: functional
[10] = system: A549; assay: Induction of apoptosis in human A549 cells assessed as late apoptotic cells at 5 uM incubated for 48 hrs by Annexin V-FITC/PI staining based flow cytometry (reference value: 5.79 %); assay type: functional
[11] = system: A549; assay: Induction of apoptosis in human A549 cells assessed as necrotic cells at 5 uM incubated for 48 hrs by Annexin V-FITC/PI staining based flow cytometry (reference value: 1.41 %); assay type: functional
[12] = system: A549; assay: Induction of apoptosis in human A549 cells assessed as viable cells at 10 uM incubated for 48 hrs by Annexin V-FITC/PI staining based flow cytometry (reference value: 87.8 %); assay type: functional; conditions: read-out: Activity
[13] = system: A549; assay: Induction of apoptosis in human A549 cells assessed as early apoptotic cells at 10 uM incubated for 48 hrs by Annexin V-FITC/PI staining based flow cytometry (reference value: 5.02 %); assay type: functional
[14] = system: A549; assay: Induction of apoptosis in human A549 cells assessed as late apoptotic cells at 10 uM incubated for 48 hrs by Annexin V-FITC/PI staining based flow cytometry (reference value: 5.79 %); assay type: functional
[15] = system: A549; assay: Induction of apoptosis in human A549 cells assessed as necrotic cells at 10 uM incubated for 48 hrs by Annexin V-FITC/PI staining based flow cytometry (reference value: 1.41 %); assay type: functional
[16] = system: A549; assay: Induction of apoptosis in human A549 cells at 5 to 15 uM incubated for 48 hrs by Annexin V-FITC/PI staining based flow cytometry relative to control; assay type: functional; conditions: dose 5-15 µM
[17] = system: A549; assay: Induction of apoptosis in human A549 cells incubated for 48 hrs by Annexin V-FITC/PI staining based flow cytometry; assay type: functional, cell-based; conditions: dose 5-15 µM
[18] = system: A549; assay: Induction of apoptosis in human A549 cells assessed as increase in BAX level at 2.5 to 10 uM incubated for 48 hrs by Western blot analysis; assay type: functional, cell-based; conditions: dose 2.5-10 µM
[19] = system: A549; assay: Induction of apoptosis in human A549 cells assessed as increase in BAD level at 2.5 to 10 uM incubated for 48 hrs by Western blot analysis; assay type: functional, cell-based; conditions: dose 2.5-10 µM
[20] = system: A549; assay: Induction of apoptosis in human A549 cells assessed as decrease in Bcl-2 level at 2.5 to 10 uM incubated for 48 hrs by Western blot analysis; assay type: functional, cell-based; conditions: dose 2.5-10 µM
[21] = system: A549; assay: Induction of apoptosis in human A549 cells assessed as activation of caspase-3 cleavage at 2.5 to 10 uM incubated for 48 hrs by Western blot analysis; assay type: functional, cell-based; conditions: dose 2.5-10 µM
[22] = system: A549; assay: Induction of apoptosis in human A549 cells assessed as activation of caspase-9 cleavage at 2.5 to 10 uM incubated for 48 hrs by Western blot analysis; assay type: functional, cell-based; conditions: dose 2.5-10 µM
[23] = system: A549; assay: Effect on c-Myc mRNA expression in human A549 cells at 10 uM by Q-PCR analysis; assay type: functional, cell-based
[24] = target: Myc proto-oncogene protein (Homo sapiens) (UniProt P01106); assay: Inhibition of c-Myc in human A549 cells by Western blot analysis; assay type: cell-based; conditions: dose <= 10.0 µM
Sequence of Myc proto-oncogene protein (Homo sapiens) (P01106 whole entry): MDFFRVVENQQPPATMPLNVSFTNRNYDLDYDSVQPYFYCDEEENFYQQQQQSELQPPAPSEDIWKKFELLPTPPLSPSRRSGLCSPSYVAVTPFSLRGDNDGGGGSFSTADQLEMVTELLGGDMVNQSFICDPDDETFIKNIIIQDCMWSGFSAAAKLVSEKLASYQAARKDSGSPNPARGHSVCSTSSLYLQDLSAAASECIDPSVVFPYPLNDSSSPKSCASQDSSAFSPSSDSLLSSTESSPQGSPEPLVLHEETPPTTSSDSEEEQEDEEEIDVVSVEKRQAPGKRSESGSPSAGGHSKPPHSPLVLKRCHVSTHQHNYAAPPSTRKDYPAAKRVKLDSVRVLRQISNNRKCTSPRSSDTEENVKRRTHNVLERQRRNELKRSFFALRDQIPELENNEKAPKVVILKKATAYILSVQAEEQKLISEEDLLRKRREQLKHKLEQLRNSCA

[25] = target: Myc proto-oncogene protein (Homo sapiens) (UniProt P01106); assay: Inhibition of c-Myc in human NCI-H1299 cells by Western blot analysis; assay type: cell-based; conditions: dose <= 10.0 µM
[26] = target: Myc proto-oncogene protein (Homo sapiens) (UniProt P01106); assay: Inhibition of c-Myc in human A549 cells at 10 uM incubated for 24 hrs in presence of MG132 by Western blot analysis; assay type: cell-based
[27] = target: Myc proto-oncogene protein (Homo sapiens) (UniProt P01106); assay: Inhibition of c-Myc in human A549 cells assessed as decrease in half life at 10 uM pretreated for 12 hrs followed by CHX treatment for 1 to 2 hrs by Western blot analysis; assay type: cell-based; conditions: time 13-14 hrs
[28] = target: Myc proto-oncogene protein (Homo sapiens) (UniProt P01106); assay: Inhibition of c-Myc transcriptional activity (unknown origin) at 10 uM by luciferase reporter gene assay
[29] = target: c-Myc/c-Max (Homo sapiens) (UniProt P01106+P61244); assay: Disruption of c-Myc-Max interaction in human A549 cells assessed as decrease in at 10 uM incubated for 48 hrs by immunoprecipitation method; assay type: cell-based
Sequence of c-Myc/c-Max (Homo sapiens) (P01106 whole entry): as above
Sequence of c-Myc/c-Max (Homo sapiens) (P61244 2-160 partner limits assumed): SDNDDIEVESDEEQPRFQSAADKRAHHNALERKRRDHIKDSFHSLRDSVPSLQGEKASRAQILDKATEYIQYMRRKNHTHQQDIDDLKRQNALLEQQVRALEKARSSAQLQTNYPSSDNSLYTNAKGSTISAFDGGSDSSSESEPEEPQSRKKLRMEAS

[30] = system: Lewis lung carcinoma cell line; assay: Antitumor activity against mouse Lewis lung carcinoma cells allografted in C57BL/6 mouse assessed as inhibition of tumor growth administered intraperitoneally every two days for 28 days; assay type: functional, cell-based; conditions: dose 20-40 mg/kg, route ip, time 28.0 day
[31] = Toxicity in C57BL/6 mouse allografted with mouse Lewis lung carcinoma cells assessed as body weight loss at 20 to 40 mg/kg, ip administered every two days for 28 days; assay type: organism-based; conditions: in vivo, 672 h, dose 20-40 mg/kg, time 28 day
[32] = Toxicity in C57BL/6 mouse allografted with mouse Lewis lung carcinoma cells assessed as discernible signs of toxicity at 20 to 40 mg/kg, ip administered every two days for 28 days; assay type: organism-based; conditions: in vivo, 672 h, dose 20-40 mg/kg, time 28 day
[33] = system: Lewis lung carcinoma cell line; assay: Antitumor activity against mouse Lewis lung carcinoma cells allografted in C57BL/6 mouse at 20 mg/kg, ip administered every two days for 28 days relative to control; assay type: functional; conditions: 672 h, time 28 day, read-out: TGI
[34] = system: Lewis lung carcinoma cell line; assay: Antitumor activity against mouse Lewis lung carcinoma cells allografted in C57BL/6 mouse at 40 mg/kg, ip administered every two days for 28 days relative to control; assay type: functional; conditions: 672 h, time 28 day, read-out: TGI
[35] = system: Lewis lung carcinoma; assay: In vivo inhibition of c-Myc in mouse Lewis lung carcinoma cells allografted in C57BL/6 mouse at 20 to 40 mg/kg, ip administered every two days for 28 days by Western blot analysis; assay type: functional, organism-based; conditions: dose 20-40 mg/kg, time 28.0 day
[36] = Toxicity in C57BL/6 mouse allografted with mouse Lewis lung carcinoma cells assessed as pathological damage in heart at 20 mg/kg, ip administered every two days for 28 days by H and E staining based analysis; assay type: organism-based; conditions: in vivo, 672 h, time 28 day
[37] = Toxicity in C57BL/6 mouse allografted with mouse Lewis lung carcinoma cells assessed as pathological damage in liver at 20 mg/kg, ip administered every two days for 28 days by H and E staining based analysis; assay type: organism-based; conditions: in vivo, 672 h, time 28 day
[38] = Toxicity in C57BL/6 mouse allografted with mouse Lewis lung carcinoma cells assessed as pathological damage in spleen at 20 mg/kg, ip administered every two days for 28 days by H and E staining based analysis; assay type: organism-based; conditions: in vivo, 672 h, time 28 day
[39] = Toxicity in C57BL/6 mouse allografted with mouse Lewis lung carcinoma cells assessed as pathological damage in kidneys at 20 mg/kg, ip administered every two days for 28 days by H and E staining based analysis; assay type: organism-based, Kidney; conditions: in vivo, 672 h, time 28 day

inhibition [24]: Dose-dependent-effect
inhibition [25]: Dose-dependent-effect
inhibition [26]: inactive
inhibition [27]: Active
inhibition [28]: Active
Activity [29]: Active
Structure (SMILES): c1ccc2c(c1)nc(-c1cc(-c3ccc(N4CCOCC4)cc3)on1)n2CCN1CCCCC1
pIC50 [1]: 5.39
pIC50 [2]: 5.10
viability at 48 h, 20 µM [3]: > 90%
viability at 2.5 µM [4]: 70.1%
Activity [5]: 8.46%
Activity [6]: 18.7%
Activity [7]: 2.76%
viability at 5 µM [8]: 68.3%
Activity [9]: 9.5%
Activity [10]: 19.6%
Activity [11]: 2.63%
viability at 10 µM [12]: 26.1%
Activity [13]: 37.8%
Activity [14]: 33%
Activity [15]: 3.05%
Activity [16]: 27%
Activity [17]: Dose-dependent-effect
Activity [18]: Active
Activity [19]: Active
Activity [20]: Active
Activity [21]: Active
Activity [22]: Active
Activity [23]: inactive
inhibition [30]: Active
Activity [31]: Non-toxic
Activity [32]: Non-toxic
inhibition in vivo at 20 mg/kg [33]: 59.9%
inhibition in vivo at 40 mg/kg [34]: 76.4%
inhibition [35]: Active
Activity [36]: Non-toxic
Activity [37]: Non-toxic
Activity [38]: Non-toxic
Activity [39]: Non-toxic

— ChEMBL document CHEMBL6087414, “Discovery of 4-(4-(3-(1-(2-(piperidin-1-yl)ethyl)-1H-benzo[d]imidazole-2-yl)isoxazol-5-yl)phenyl)morpholine as a novel c-Myc inhibitor against lung cancer in vitro and in vivo” (Eur J Med Chem, 2025)
